Target: T1, FtsZ (Filamenting temperature-sensitive mutant Z) (Enterococcus faecalis, UniProt O08439)
T1 construct: recombinant E. faecalis FtsZ protein (FTZ04-B)
Assay: SPR (Biacore T200, FtsZ immobilized on CM5 chip); also GTPase inhibition of E. faecalis FtsZ, IC50 […]
Assay type: binding

T1 sequence (O08439 whole entry, change not shown): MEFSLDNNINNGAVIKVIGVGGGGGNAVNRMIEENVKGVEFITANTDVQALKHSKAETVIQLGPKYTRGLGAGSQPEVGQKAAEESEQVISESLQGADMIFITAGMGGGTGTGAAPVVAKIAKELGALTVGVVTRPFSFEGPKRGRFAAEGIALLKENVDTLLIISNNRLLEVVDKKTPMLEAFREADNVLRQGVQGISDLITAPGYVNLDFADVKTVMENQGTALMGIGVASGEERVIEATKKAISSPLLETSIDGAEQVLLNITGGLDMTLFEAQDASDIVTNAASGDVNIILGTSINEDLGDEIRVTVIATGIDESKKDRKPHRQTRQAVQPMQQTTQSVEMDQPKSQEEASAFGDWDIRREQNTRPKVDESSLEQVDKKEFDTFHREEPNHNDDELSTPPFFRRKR

Q: `CC1=C(O)C(=O)C=C2C1=CC=C1[C@@]2(C)CC[C@@]2(C)[C@@H]3C[C@](C)(C(=O)O)CC[C@]3(C)CC[C@]12C` [CEL, celastrol] was tested. Which Kd did it give?
A: Its Kd is 2450 nM.

Reference: publication PMC9927571, “Antibacterial Activity of an FtsZ Inhibitor Celastrol and Its Synergistic Effect with Vancomycin against Enterococci In Vitro and In Vivo” (Microbiology Spectrum, 2023)
